From US10532980B2, “N-methyl pyrazoles” (Prosetta Antiviral, Inc., priority 2015, dated 2020)

Test system: Influenza A virus (A/WSN/1933(H1N1))
Assay: microbe, parasite or virus in culture
Assay type: cell-based
Settings: MDCK, 24 h with compound, then 2 h drug-free medium

SMILES	EC90
Cc1c(F)cccc1CNC(=O)c1cc(C2CC2)nn1C [Compound 19, 3-cyclopropyl-N-(3-fluoro-2-methylbenzyl)-1-methyl-1H-pyrazole-5-carboxamide]	1500 nM
COc1cccc(CNC(=O)c2cc(C3CC3)nn2C)c1C(F)(F)F [Compound 30, 3-cyclopropyl-N-(3-methoxy-2-(trifluoromethyl)benzyl)-1-methyl-1H-pyrazole-5-carboxamide]	300 nM
